Experiment [1] deals with T1, NADPH oxidase 1 (Homo sapiens, UniProt Q9Y5S8).
T1 sequence (Q9Y5S8 whole entry): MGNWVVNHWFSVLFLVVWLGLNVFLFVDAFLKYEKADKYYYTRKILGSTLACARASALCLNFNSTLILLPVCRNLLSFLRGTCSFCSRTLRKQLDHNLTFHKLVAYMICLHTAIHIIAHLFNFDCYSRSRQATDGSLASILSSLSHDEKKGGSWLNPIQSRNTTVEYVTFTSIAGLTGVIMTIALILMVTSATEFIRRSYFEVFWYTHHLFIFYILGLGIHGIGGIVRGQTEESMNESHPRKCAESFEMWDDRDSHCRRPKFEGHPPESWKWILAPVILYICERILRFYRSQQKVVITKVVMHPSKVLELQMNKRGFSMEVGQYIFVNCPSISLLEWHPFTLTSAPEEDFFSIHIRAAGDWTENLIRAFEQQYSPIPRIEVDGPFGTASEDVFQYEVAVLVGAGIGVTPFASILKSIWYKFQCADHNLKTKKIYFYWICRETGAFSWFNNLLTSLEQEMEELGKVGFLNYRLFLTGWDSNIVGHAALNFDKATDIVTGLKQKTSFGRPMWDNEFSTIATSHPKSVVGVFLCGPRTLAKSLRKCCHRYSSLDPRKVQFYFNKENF
The format is functional, cell-based.

Experiment [2] can be described thus: inhibitors of intracellular T. cruzi replication, confirmation, NIH3T3 host cells, beta-gal luminescence (AID 2044).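 Further: intracellular parasites grown in NIH/3T3 mouse fibroblasts as host cells; luminescent beta-galactosidase reporter signal from transgenic T. cruzi replicating inside host cells; inhibitors lower the luminescence signal.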 The format is functional, cell-based.
The nature of experiment [3]: cells.
Experiment [4] can be described thus: cytotoxicity toward NIH3T3 fibroblasts, dose response, counter-screen, cell-based, ATP luminescence, mouse fibroblasts (AID 2010).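 Further: cells exposed to compound for about 90 hours before reading.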 The format is functional. For orientation: A counterscreen serves to expose hits that act by an unwanted route or on another target.
Experiment [5] concerns the target T2, Voltage-gated N-type calcium channel alpha-1B subunit/Amyloid beta A4 precursor protein-binding family A member 1 (Homo sapiens, UniProt Q00975+Q02410). In kind it is protein assay.
Experiment [6] addresses T2, Voltage-gated N-type calcium channel alpha-1B subunit/Amyloid beta A4 precursor protein-binding family A member 1. The format is protein assay. The source holds these as a separate data set.
Experiment [7] can be described thus: cytotoxicity in HEK-293T cells, dose response, cytotoxicity control for BCR NF-kB inhibitor project, luminescence, B-cell screen hits (AID 489021).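 Further: HEK-293T cells carrying an NF-kB luciferase reporter; cells exposed to compound for about 14 hours before viability readout.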 In kind it is functional, cell-based.
The subject of experiment [8] is Vero. The experiment can be described thus: cells. As to conditions: Chlorocebus sabaeus. The format is functional, cell-based.
The target of experiment [9] is T3, Short transient receptor potential channel 4 (Mus musculus, UniProt Q9QUQ5).
T3 sequence (Q9QUQ5 whole entry): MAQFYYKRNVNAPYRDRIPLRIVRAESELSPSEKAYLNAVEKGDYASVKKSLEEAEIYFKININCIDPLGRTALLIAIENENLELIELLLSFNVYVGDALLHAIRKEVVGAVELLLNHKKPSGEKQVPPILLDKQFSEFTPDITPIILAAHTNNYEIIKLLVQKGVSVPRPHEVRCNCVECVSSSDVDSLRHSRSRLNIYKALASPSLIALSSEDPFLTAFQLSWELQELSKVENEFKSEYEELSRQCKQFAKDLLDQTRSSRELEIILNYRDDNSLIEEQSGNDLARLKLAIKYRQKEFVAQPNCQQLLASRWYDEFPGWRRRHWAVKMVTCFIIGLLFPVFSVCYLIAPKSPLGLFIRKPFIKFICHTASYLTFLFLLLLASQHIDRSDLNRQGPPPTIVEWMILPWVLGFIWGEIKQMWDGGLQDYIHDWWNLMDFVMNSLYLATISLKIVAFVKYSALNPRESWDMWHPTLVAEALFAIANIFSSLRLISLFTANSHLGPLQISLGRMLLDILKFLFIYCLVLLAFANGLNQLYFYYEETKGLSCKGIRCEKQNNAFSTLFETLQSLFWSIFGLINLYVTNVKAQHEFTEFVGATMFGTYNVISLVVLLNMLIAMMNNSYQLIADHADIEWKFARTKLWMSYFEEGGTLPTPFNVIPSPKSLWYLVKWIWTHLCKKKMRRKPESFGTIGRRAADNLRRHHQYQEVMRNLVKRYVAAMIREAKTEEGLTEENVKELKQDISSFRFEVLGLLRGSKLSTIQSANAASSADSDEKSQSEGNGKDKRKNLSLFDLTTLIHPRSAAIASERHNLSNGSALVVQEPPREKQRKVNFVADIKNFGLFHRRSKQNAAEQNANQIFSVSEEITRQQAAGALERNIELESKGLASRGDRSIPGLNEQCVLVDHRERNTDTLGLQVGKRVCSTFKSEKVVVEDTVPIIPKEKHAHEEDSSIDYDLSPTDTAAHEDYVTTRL
Description: mouse TRPC4 channel inhibitors, dose response, cell-based, HEK293 TRPC4/mu-opioid, Fluo-4 calcium (AID 434942).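 Further: potency of inhibitors blocking the TRPC4 calcium response.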 In kind it is functional.

A short description of experiment [10]: cytotoxicity in KRAS-transformed pancreatic duct cells, primary screen, cell-based, fluorescence, HTS (AID 431).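 Further: cell line used: HPDE-C7K.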 The format is functional. Conditions: Homo sapiens.
Experiment [11] is described as follows: cytotoxicity in HPDE-C7 cells, cell-based, fluorescence, HTS (AID 430). The format is functional. As to conditions: Homo sapiens.
The target in experiment [12] is Nonstructural protein 1 (Influenza A virus, UniProt Q194T2). In kind it is functional, Influenza A virus (A/California/07/2009(H1N1)).
Experiment [13] addresses T4, Rac GTPase-activating protein 1 (Homo sapiens, UniProt Q9H0H5).
T4 sequence (Q9H0H5 whole entry): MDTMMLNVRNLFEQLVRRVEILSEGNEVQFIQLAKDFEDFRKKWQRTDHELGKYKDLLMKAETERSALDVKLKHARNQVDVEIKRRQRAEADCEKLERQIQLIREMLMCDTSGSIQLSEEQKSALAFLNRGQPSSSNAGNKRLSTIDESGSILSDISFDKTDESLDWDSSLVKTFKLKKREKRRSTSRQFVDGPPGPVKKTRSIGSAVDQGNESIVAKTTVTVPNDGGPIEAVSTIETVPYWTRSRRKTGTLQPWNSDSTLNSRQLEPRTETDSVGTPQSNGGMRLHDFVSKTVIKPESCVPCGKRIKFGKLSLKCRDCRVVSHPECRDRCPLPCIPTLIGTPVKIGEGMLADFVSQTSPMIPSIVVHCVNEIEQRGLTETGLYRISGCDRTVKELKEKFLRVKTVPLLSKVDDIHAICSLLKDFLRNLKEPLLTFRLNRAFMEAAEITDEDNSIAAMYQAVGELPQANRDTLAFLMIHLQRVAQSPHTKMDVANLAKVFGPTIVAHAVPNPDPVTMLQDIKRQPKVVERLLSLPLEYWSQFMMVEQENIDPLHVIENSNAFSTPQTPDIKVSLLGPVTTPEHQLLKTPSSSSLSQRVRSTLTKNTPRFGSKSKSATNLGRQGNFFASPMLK
The experiment can be described thus: MgcRacGAP GTPase-activating activity inhibitors, confirmation, biochemical, ADP Hunter fluorescence, primary and confirmatory (AID 624330). In kind it is functional.

The target of experiment [14] is T5, Protein RecA (Mycobacterium tuberculosis, UniProt P9WHJ3).
T5 sequence (P9WHJ3 whole entry): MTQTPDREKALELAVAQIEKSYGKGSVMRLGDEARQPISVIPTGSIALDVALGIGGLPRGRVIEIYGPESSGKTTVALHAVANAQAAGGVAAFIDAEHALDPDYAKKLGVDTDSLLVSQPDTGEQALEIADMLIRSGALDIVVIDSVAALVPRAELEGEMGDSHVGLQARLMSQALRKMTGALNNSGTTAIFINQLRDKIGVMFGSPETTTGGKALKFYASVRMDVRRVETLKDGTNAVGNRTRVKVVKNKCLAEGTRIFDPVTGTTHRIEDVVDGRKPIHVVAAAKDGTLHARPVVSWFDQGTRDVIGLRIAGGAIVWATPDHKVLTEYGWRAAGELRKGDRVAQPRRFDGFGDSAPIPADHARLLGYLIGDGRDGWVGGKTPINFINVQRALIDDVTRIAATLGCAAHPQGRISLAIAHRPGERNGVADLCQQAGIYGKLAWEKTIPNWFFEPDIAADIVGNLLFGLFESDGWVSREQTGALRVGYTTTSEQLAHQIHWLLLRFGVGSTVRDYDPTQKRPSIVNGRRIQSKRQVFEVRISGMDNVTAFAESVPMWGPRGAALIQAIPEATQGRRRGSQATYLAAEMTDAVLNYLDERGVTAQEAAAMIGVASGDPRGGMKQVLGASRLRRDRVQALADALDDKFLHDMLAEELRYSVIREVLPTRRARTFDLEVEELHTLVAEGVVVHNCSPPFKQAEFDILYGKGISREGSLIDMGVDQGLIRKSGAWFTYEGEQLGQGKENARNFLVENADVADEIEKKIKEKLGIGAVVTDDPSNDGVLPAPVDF
Description: Fluorescence Cell-Free Homogeneous Dose Retest to Identify Inhibitors of RecA-Intein Splicing Activity. [Related pubchem assays (depositor defined):AID2097, AID2223, AID489010, AID492950]. The format is functional.

Experiment [15] has as its target T6, Replicative DNA helicase DnaB (Mycobacterium tuberculosis, UniProt P9WMR3).
T6 sequence (P9WMR3 whole entry): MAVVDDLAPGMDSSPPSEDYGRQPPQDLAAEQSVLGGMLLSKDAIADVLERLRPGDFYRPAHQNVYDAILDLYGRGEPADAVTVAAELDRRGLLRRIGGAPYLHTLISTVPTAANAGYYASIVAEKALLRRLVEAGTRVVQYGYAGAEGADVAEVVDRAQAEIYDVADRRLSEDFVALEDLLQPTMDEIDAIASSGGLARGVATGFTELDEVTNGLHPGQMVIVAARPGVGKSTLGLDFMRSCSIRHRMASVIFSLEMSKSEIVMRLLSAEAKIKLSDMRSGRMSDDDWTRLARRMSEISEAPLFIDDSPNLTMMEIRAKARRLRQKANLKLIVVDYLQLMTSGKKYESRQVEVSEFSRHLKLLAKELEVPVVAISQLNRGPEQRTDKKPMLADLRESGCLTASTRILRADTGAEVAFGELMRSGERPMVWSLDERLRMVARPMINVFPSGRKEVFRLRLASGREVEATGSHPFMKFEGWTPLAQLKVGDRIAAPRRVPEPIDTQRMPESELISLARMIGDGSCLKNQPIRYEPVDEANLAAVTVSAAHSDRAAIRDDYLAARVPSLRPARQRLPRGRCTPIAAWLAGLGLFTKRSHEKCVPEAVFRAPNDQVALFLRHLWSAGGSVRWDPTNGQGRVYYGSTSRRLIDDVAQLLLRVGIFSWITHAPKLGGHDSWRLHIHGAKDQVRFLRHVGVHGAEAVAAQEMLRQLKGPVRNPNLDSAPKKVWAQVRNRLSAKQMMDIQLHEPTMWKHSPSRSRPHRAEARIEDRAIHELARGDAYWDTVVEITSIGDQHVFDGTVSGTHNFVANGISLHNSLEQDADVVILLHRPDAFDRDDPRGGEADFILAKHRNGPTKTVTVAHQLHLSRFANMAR
Description: DnaB intein splicing inhibitors, dose response, biochemical, cell-free fluorescence (AID 449749). In kind it is functional.

The results in this text go back to ChEMBL document CHEMBL1201862, “PubChem BioAssay data set” (2004).

Activity calls are given as the source filed them.

T2 sequence (Q00975 whole entry): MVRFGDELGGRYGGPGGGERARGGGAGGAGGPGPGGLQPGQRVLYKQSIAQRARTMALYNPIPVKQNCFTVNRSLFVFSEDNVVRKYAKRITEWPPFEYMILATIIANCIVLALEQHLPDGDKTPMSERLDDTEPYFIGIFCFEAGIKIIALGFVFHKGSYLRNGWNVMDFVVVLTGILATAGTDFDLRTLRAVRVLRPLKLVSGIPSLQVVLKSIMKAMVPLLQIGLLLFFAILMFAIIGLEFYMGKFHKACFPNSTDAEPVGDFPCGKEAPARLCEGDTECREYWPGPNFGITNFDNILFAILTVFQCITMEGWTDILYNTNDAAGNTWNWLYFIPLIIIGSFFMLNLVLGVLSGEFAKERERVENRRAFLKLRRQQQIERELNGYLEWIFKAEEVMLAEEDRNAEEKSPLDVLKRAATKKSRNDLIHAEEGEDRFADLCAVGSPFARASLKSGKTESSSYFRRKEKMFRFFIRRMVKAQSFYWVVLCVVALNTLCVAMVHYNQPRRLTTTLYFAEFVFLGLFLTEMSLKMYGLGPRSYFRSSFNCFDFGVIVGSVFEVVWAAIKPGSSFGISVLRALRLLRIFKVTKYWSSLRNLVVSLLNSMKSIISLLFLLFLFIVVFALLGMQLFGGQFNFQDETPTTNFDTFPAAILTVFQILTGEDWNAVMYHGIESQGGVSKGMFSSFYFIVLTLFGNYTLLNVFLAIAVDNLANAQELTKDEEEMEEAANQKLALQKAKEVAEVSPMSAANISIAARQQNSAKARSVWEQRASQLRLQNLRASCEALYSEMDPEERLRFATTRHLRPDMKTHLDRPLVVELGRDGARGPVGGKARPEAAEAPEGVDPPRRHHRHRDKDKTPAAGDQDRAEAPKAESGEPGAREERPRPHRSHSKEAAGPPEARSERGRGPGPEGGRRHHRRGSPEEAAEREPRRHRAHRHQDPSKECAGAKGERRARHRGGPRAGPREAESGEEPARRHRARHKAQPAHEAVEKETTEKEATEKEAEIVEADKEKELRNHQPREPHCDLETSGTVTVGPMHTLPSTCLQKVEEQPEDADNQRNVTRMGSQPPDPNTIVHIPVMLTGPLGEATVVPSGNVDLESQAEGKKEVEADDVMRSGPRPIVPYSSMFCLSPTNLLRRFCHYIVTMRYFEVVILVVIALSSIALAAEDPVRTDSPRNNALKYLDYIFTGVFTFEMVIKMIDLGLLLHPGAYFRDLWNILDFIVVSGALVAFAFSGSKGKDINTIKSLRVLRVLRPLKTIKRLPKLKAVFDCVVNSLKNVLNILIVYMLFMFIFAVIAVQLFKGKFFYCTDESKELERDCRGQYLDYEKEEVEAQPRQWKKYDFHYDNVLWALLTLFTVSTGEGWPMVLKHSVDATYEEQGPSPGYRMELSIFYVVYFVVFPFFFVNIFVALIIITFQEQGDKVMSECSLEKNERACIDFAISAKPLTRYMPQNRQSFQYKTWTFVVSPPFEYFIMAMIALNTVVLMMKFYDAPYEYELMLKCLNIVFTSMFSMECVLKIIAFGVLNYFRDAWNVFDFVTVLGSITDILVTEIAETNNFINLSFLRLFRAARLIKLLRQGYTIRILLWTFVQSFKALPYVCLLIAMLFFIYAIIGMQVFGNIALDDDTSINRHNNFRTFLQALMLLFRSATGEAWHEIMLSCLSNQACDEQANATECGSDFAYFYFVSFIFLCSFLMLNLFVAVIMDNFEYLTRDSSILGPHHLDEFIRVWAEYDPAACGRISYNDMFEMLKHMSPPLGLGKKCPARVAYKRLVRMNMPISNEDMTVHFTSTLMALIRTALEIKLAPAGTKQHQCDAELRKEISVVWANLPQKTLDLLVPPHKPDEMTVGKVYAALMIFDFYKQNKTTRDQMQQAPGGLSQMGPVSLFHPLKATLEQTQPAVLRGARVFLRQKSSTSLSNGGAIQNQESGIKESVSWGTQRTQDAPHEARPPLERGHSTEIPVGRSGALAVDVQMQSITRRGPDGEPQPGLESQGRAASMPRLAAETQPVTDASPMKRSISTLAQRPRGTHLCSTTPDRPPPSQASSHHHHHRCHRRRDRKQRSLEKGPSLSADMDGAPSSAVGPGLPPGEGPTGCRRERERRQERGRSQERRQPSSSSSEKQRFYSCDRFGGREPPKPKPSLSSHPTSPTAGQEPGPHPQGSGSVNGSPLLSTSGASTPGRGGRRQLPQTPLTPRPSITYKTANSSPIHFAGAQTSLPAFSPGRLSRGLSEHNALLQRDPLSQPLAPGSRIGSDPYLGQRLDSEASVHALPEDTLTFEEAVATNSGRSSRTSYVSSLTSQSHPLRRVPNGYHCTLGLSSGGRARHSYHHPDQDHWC
T2 sequence (Q02410 whole entry): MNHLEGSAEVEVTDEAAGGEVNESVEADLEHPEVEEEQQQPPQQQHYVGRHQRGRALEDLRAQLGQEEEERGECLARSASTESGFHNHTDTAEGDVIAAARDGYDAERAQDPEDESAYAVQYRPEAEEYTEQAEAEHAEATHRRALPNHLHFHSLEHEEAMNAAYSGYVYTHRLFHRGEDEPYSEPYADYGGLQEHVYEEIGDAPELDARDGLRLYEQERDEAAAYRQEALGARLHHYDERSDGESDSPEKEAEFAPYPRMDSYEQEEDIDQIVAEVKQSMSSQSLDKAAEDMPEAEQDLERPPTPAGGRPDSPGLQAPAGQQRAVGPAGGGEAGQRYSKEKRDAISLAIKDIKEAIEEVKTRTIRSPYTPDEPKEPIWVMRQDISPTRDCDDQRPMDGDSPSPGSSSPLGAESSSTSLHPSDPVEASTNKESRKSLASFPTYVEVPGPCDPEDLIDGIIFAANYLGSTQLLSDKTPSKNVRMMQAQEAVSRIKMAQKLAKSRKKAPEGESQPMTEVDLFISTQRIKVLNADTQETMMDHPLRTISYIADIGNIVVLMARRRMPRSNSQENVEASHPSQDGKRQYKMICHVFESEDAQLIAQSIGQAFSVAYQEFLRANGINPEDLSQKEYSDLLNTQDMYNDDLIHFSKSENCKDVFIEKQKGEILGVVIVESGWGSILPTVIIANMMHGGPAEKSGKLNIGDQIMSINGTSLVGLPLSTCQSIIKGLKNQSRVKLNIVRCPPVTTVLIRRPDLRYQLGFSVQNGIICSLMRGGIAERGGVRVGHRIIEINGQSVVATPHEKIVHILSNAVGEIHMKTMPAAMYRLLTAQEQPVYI
Nonstructural protein 1, sequence (Q194T2 whole entry): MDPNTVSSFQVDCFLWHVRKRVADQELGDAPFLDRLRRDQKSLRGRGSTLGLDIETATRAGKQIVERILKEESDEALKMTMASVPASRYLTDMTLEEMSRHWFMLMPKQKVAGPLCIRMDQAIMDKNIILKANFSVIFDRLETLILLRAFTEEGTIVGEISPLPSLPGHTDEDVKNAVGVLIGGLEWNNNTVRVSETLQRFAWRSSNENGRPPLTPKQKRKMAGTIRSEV

As to `O=[N+]([O-])c1cccc(/C=N/Nc2c(Cl)cncc2Cl)c1`, the IC50 in [1] is listed as > 17 µM (not active).

As to `O=C(O)c1nc(Cl)c(Cl)c(N/N=C/c2ccc(N3CCOCC3)c([N+](=O)[O-])c2)c1Cl`, in experiment [1], the half-maximal inhibitory concentration (IC50) is listed as > 17 µM (not active).

Turning to `COc1ccc(-c2nc(CN3CCN(Cc4cccc(Cl)c4)CC3)c(C)o2)cc1`, the concentration giving a half-maximal response (EC50) in [2] was < 100 nM (active); in experiment [3], 377 nM (active); in [4] it was > 60 µM (not active).

On to `O=C(O)Cc1sc(Nc2ccc(Cl)cc2)nc1-c1cccs1`, for which the half-inhibitory concentration (IC50) in experiment [5] was 16 µM (active); in experiment [6], > 50 µM (inactive).

For the compound `CCOc1ccc(-c2cc(CCCC(=O)NCc3ccc(C)cc3)no2)cc1`, in experiment [7], the IC50 was > 80 µM (inactive).

Take `O=C(Cc1cccc2ccccc12)Nc1ccc(Br)cc1C(=O)O`: the half-maximal inhibitory concentration (IC50) in [8] was > 25 µM (active). Besides, the EC50 in experiment [9] was 5.96 µM (active).

Turning to `CN1CSC2=C(C#N)C(c3cccc(OCc4ccccc4)c3)CC(=O)N2C1` (configuration not stated), the 50% inhibitory concentration (IC50) is 7.59 µM (active) in [5] and 47.6 µM (active) in [6].

For `O=C(Oc1cccc2ccccc12)c1sc2ccccc2c1Cl`, the IC50 in [1] is recorded as > 17 µM (not active).

In the case of `O=C(Oc1ccccc1F)c1sc2ccccc2c1Cl`, the IC50 in experiment [1] is > 17 µM (not active).

With `CCc1c(C)nc2cc(-c3cc(OC)cc(OC)c3)nn2c1N1CCCC1`, the concentration giving a half-maximal response (EC50) in [10] is 13 µM (active); in experiment [11], 10.5 µM (active).

Consider `COc1ccc(CN2CCCC(CNC(=O)c3ccc(F)cc3)C2)c(C)c1C` (configuration not stated), for which the EC50 is < 100 nM (active) in experiment [2], 90 nM (active) in [3] and > 30 µM (not active) in [4].

For `Cc1cc(N(C)C)ccc1N=Nc1ccc(N)cc1`, the IC50 in [7] was > 80 µM (inactive); in experiment [12], 21.4 µM (active); in experiment [13] it was 29.3 µM (active).

For `Cc1[nH]n(C)c(=O)c1C(=O)c1c(-c2c(Cl)cccc2Cl)noc1C`, the 50% effective concentration (EC50) in [14] was 1.71 µM (active); in [9] it was 4.22 µM (active). For the same compound, in experiment [15], the half-maximal activity concentration (AC50) was 5.13 µM (active).

Regarding `COc1ccc(C(=O)CC(=O)O)c2c1C=CC(C)(C)O2` [URSINOIC ACID], the concentration giving a half-maximal response (EC50) in [10] and in [11] was > 20 µM (not active) each time.

As usually defined, the IC50 is the concentration needed to halve the response being measured. In general, EC50 refers to the concentration that produces a half-maximal response. The AC50 is the midpoint of the concentration-response curve, whichever way the signal moves.
